Assay [1] deals with ryegrass, Italian (Italian ryegrass, Lolium multiflorum). As to the kind of experiment: Test F pre-/postemergence: ryegrass, Italian. The assay is classed as in vivo. The essentials:
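Seeds were sown in silt loam soil and sprayed preemergence with test chemical in a non-phytotoxic solvent mixture containing surfactant; postemergence treatments went onto plants 2 to 18 cm tall (1- to 4-leaf stage) grown in peat moss/vermiculite medium. After 14 to 21 days in a greenhouse, injury was rated visually against controls, 0 (no effect) to 100 (complete control).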

Assay [2] relates to Oilseed Rape. Nature of the assay: Test C preemergence: oilseed rape. The assay is classed as in vivo, Brassica napus. To be noted: 125 g ai/ha, scale 0 to 100, 0 no effect, 100 complete control.
Assay [3] has as its system sandbur (southern sandbur, Cenchrus echinatus). As to the kind of experiment: Test F pre-/postemergence: sandbur. The assay is classed as in vivo. The source says: (§1) Seeds of plant species selected from corn (Zea mays), soybean (Glycine max), velvetleaf (Abutilon theophrasti), lambsquarters (Chenopodium album), poinsettia, wild (wild poinsettia, Euphorbia heterophylla), pigweed, palmer (palmer pigweed, Amaranthus palmeri), waterhemp (common waterhemp, Amaranthus rudis), surinam grass (Brachiaria decumbens), crabgrass, Brazil (Brazilian crabgrass, Digitaria horizontalis), panicum, fall (fall panicum Panicum dichotomiflorum), crabgrass, large (large crabgrass, Digitaria sanguinalis), foxtail, giant (giant foxtail, Setaria faberii), foxtail, green (green foxtail Setaria viridis), goosegrass (Eleusine indica), ragweed (common ragweed, Ambrosia elatior), barnyardgrass (Echinochloa crus-galli), sandbur (southern sandbur, Cenchrus echinatus), arrowleaf sida (Sida rhombifolia), ryegrass, Italian (Italian ryegrass, Lolium multiflorum), dayflower, VA (Virginia (VA) dayflower, Commelina virginica), field bindweed (Convolvulus arvensis), cocklebur (common cocklebur, Xanthium strumarium), morningglory (Ipomoea coccinea), nightshade (eastern black nightshade, Solanum ptycanthum), kochia (Kochia scoparia), nutsedge, yellow (yellow nutsedge, Cyperus esculentus), johnsongrass (Sorghum halepense), smartweed (ladysthumb smartweed, Polygonum persicaria), and beggarticks (hairy beggarticks, Bidens pilosa), were planted into a silt loam soil and treated preemergence with test chemicals formulated in a non-phytotoxic solvent mixture which included a surfactant. At the same time, plants selected from these crop and weed species and also pigweed (Amaranthus retroflexus), waterhemp_RES1 (ALS/Triazine resistant common waterhemp, Amaranthus rudis) and waterhemp_RES2 (ALS/HPPD resistant common waterhemp, Amaranthus rudis) were planted in pots containing a planting medium comprising spaghnum peat moss, vermiculite, wetting agent and starter nutrients treated with postemergence applications of some of the test chemicals formulated in the same manner. Plants ranged in height from 2 to 18 cm for postemergence treatments (1- to 4-leaf stage).
(§2) Treated plants and controls were maintained in a greenhouse for 14 to 21 days, after which time all species were compared to controls and visually evaluated. Plant response ratings, summarized in Table E, are based on a scale of 0 to 100 where 0 is no effect and 100 is complete control. A dash (-) response means no test result.

In assay [4] the test system is poinsettia, wild (wild poinsettia, Euphorbia heterophylla). Nature of the assay: Test F pre-/postemergence: poinsettia, wild. The class given is in vivo.
From the text: as §1, §2

Assay [5] relates to Oilseed Rape. Nature of the assay: Test C postemergence: oilseed rape. The assay is classed as in vivo. The essentials: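 Visual ratings of 0 (no effect) to 100 (complete control) were made against controls 13-15 days after a postemergence spray, with plants kept in a greenhouse. Plants were 2-18 cm tall (1- to 4-leaf stage) in Redi-Earth peat/vermiculite medium at treatment.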

[6] abbreviates: Preemergence, 16 g ai/ha, scale 0 to 100 (0 no effect, 100 complete control).
Setting [7] is: Preemergence, 31 g ai/ha, scale 0 to 100 (0 no effect, 100 complete control).
[8] abbreviates: Preemergence, 125 g ai/ha, scale 0 to 100.
Where [9] appears, read: Preemergence, 250 g ai/ha, scale 0 to 100.
The mark [10] stands for this setting: 31 g ai/ha, scale 0 to 100 (0 no effect, 100 complete control).
Setting [11] is: 62 g ai/ha, scale 0 to 100 (0 no effect, 100 complete control).
Where [12] appears, read: Postemergence, 4 g ai/ha, scale 0 to 100.
[13] abbreviates: Postemergence, 8 g ai/ha, scale 0 to 100.
Where [14] appears, read: Postemergence, 16 g ai/ha, scale 0 to 100.
[15] abbreviates: Postemergence, 31 g ai/ha, scale 0 to 100.
The mark [16] stands for this setting: Postemergence, 62 g ai/ha, scale 0 to 100.
Setting [17] is: Preemergence, 4 g ai/ha, scale 0 to 100, 0 no effect, 100 complete control.
Setting [18] is: Preemergence, 8 g ai/ha, scale 0 to 100, 0 no effect, 100 complete control.

Structures are written as SMILES.

`CCCc1nn(-c2ccc(F)cc2)nc1Cc1ccnc(C(F)(F)F)c1` [Compound 153]: the “Plant response rating, Ryegrass, Italian” value came out at 5 in assay [1] (setting [6]), 5 in assay [1] (setting [7]), 65 in assay [1] (setting [8]) and 95 in assay [1] (setting [9]). The “Plant response rating, Oilseed Rape” value is listed as 98 with Oilseed Rape [2]; 90 with Oilseed Rape [5] (setting [10]); 90 in the assay on Oilseed Rape [5] (setting [11]); 95 with Oilseed Rape [5] (250 g ai/ha, scale 0 to 100). Moreover, the “Plant response rating, Sandbur” value amounted to 5 in assay [3] (setting [6]), 35 in assay [3] (setting [7]), 95 in assay [3] (setting [8]) and 100 in assay [3] (setting [9]). The “Plant response rating, Poinsettia, Wild” value in assay [4] (setting [6]) was determined as 0; in assay [4] (setting [7]), 25; in assay [4] (setting [8]) it was 70; in assay [4] (setting [9]), 98.

On to `Cc1nn(-c2ccc(C(F)(F)F)c(F)c2)nc1Cc1ccnc(C(F)(F)F)c1` [Compound 162], for which the “Plant response rating, Ryegrass, Italian” value in assay [1] (setting [12]), in assay [1] (setting [13]), in assay [1] (setting [14]), in assay [1] (setting [15]), in assay [1] (setting [16]) and in assay [1] (setting [17]) was 0 each time. Besides, the “Plant response rating, Ryegrass, Italian” value in assay [1] (setting [18]) stood at 0; in assay [1] (setting [6]), 35; in assay [1] (setting [7]) it was 80. Also, the “Plant response rating, Oilseed Rape” value in the assay on Oilseed Rape [2] came to 100; in the assay with Oilseed Rape [5] (setting [10]) it was 90; with Oilseed Rape [5] (setting [11]), 90; in the assay with Oilseed Rape [5] (250 g ai/ha, scale 0 to 100) it was 95. In addition, the “Plant response rating, Sandbur” value in assay [3] (setting [12]) stood at 10; in assay [3] (setting [13]), 10; in assay [3] (setting [14]) it was 15; in assay [3] (setting [15]), 20; in assay [3] (setting [16]), 20; in assay [3] (setting [17]), 0. The “Plant response rating, Sandbur” value stood at 0 in assay [3] (setting [18]), 5 in assay [3] (setting [6]) and 15 in assay [3] (setting [7]). The “Plant response rating, Poinsettia, Wild” value in assay [4] (setting [12]) is recorded as 15; in assay [4] (setting [13]) it was 30; in assay [4] (setting [14]) it was 60; in assay [4] (setting [15]), 75; in assay [4] (setting [16]), 80; in assay [4] (setting [17]), 0. Further, the “Plant response rating, Poinsettia, Wild” value came out at 0 in assay [4] (setting [18]), 0 in assay [4] (setting [6]) and 10 in assay [4] (setting [7]).
